Assay results: PMC2673211, “Nitric oxide activates ATP-sensitive potassium channels in mammalian sensory neurons: action by direct S-nitrosylation” (Molecular Pain, 2009)

Key:
Format in all cases: biochemical
[1] = molecular target: T1, wild-type SUR1/Kir6.2 channels (Rattus norvegicus, UniProt P70673+Q09429); assay: Inside-out patch recording of recombinant wild-type channels expressed in COS7 cells; conditions: SNAP 1 mM in the presence of 1 mM [ATP]i; n = 7
T1 construct: A full-length Kir cDNA and a full-length SUR cDNA were subcloned into the mammalian expression vector; expressed in transfected cells; host or cells: COS7 cells (KATP channel-deficient), pcDNA3.1(-) vectors, GFP cDNA co-transfected as a separate reporter
Procedure: (§1) KATP channel-deficient COS7 cells were plated at a density of 3 × 10^5/dish (35 mm in diameter) and cultured in Dulbecco's modified Eagle's medium supplemented with 10% fetal calf serum. Rat Kir6.2 (GenBank X97041) and rat SUR1 (GenBank X97279) cDNAs were used for expression study. A truncated form of Kir6.2 lacking the last 36 amino acids at the C-terminus was obtained by polymerase chain reaction amplification. Polymerase chain reaction products were cloned into the pCR3.1 vector by using the TA cloning system (Invitrogen Corp., Carlsbad, CA, USA) and then cloned into the pcDNA3.1 (-) vector (Invitrogen Corp.) for mammalian expression. Point mutation of cysteine at position 717 (C717), C806, C1378, C1446, and C1491 within SUR1 to serine (C717S, C806S, C1378S, C1446S, and C1491S) was performed by using the Site-Directed Mutagenesis system (Invitrogen Corp.). All cDNA products were sequenced by using the BigDye terminator cycle sequencing kit and an ABI PRISM 377 DNA sequencer (Applied Biosystems, Foster City, CA) to confirm the sequence. A full-length Kir cDNA and a full-length SUR cDNA were subcloned into the mammalian expression vector pcDNA3.1 (-). For electrophysiological recordings, either wild-type or mutated pcDNA3.1 (-) Kir6.2 alone (1 μg), or pcDNA3.1 (-) Kir6.2 (1 μg) plus pcDNA3.1 (-) SUR1 (3 μg) were transfected into COS7 cells with green fluorescent protein cDNA as a reporter gene by using lipofectamine and Opti-MEN 1 reagents (Life Technologies Inc., Rockville, MD) according to the manufacturer's instructions. After transfection, cells were cultured at 37°C with 95% air and 5% CO2 for 48–72 h before being subjected to electrophysiological recordings.
(§2) We recorded current passing through single channels in inside-out or cell-attached patch configurations. In cell-attached patches, both bath and pipette (extracellular) solutions were composed of the following: 140 mM KCl, 10 mM HEPES, 5.5 mM dextrose, and 1 mM EGTA. In inside-out patches, the bath (intracellular) solution contained 140 mM KCl, 1.2 mM MgCl2, 10 mM HEPES, 1.5 mM EGTA and 5.5 mM dextrose. The pipette (extracellular) solution was of the same composition as that used in cell-attached recordings. The pH of all solutions was adjusted to 7.4 with KOH. Osmolality was adjusted approximately to 300 mOsm/l by adding sucrose if necessary. We pulled patch micropipettes from borosilicate glass capillaries using a Flaming/Brown micropipette puller, model P-97 (Sutter, San Rafael, CA) and flame polished them with a microforge polisher (Narishige, Tokyo, Japan) prior to use. Their resistance ranged between 3 and 6 MΩ when filled with the internal solution, and placed into the recording solutions.
(§3) We recorded single channel currents at room temperature (20–25°C) using an Axon CNS Multiclamp 700B amplifier, digitized them using an analog-to-digital converter (Axon CNS DigiData 1440A; Axon Instruments, Foster, CA), and stored them into a PC. Sampling frequency of single-channel data was 5 KHz with a low-pass filter (1 KHz). We used pClamp version 10.2 software (Axon Instruments) for data acquisition and analysis. […] Channel open probability (Po) was determined from the ratios of the area under the peaks in the amplitude histograms fitted by a Gaussian distribution. We calculated channel activity as NPo (where N is the number of observed channels in the patch) from data samples of either 30 s (in inside-out recordings), or 60 s (in cell-attached recordings), in the steady state. […]

[2] = molecular target: T2, SUR1-C717S/Kir6.2 channels (Rattus norvegicus, UniProt P70673+Q09429, C717S); assay: Inside-out patch recording of mutated channels expressed in COS7 cells
T2 construct: A full-length Kir cDNA and a full-length SUR cDNA were subcloned into the mammalian expression vector; expressed in transfected cells; host or cells: COS7 cells, pcDNA3.1(-) vectors, GFP cDNA co-transfected as a separate reporter
Procedure: as §1, §2, §3

Kir6.2ΔC36 channels = molecular target: T3, Kir6.2ΔC36 channels (Rattus norvegicus, UniProt P70673); assay: Inside-out patch recording of truncated Kir6.2 channels expressed in COS7 cells; conditions: SNAP 1 mM in the presence of 1 mM [ATP]i; n = 6
T3 construct: A truncated form of Kir6.2 lacking the last 36 amino acids at the C-terminus; expressed in transfected cells; host or cells: COS7 cells, pcDNA3.1(-) Kir6.2 alone, GFP cDNA co-transfected as a separate reporter
T3 sequence (P70673 1-354 limits assumed): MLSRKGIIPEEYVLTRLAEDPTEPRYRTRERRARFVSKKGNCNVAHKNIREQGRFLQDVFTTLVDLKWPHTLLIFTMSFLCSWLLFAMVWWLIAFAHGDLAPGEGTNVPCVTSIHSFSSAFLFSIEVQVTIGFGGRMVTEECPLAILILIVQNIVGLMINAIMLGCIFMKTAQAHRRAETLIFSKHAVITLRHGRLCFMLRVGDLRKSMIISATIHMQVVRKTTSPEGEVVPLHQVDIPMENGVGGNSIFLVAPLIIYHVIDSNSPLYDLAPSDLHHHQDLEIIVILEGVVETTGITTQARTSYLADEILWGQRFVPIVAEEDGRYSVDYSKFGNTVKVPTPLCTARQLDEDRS
Procedure: KATP channel-deficient COS7 cells were plated at a density of 3 × 10^5/dish (35 mm in diameter) and cultured in Dulbecco's modified Eagle's medium supplemented with 10% fetal calf serum. Rat Kir6.2 (GenBank X97041) and rat SUR1 (GenBank X97279) cDNAs were used for expression study. A truncated form of Kir6.2 lacking the last 36 amino acids at the C-terminus was obtained by polymerase chain reaction amplification. Polymerase chain reaction products were cloned into the pCR3.1 vector by using the TA cloning system (Invitrogen Corp., Carlsbad, CA, USA) and then cloned into the pcDNA3.1 (-) vector (Invitrogen Corp.) for mammalian expression. […]
We recorded current passing through single channels in inside-out or cell-attached patch configurations. […]
as §3, with “PC.” for “PC. Sampling frequency of single-channel data was 5 KHz with a low-pass filter (1 KHz). We used pClamp version 10.2 software (Axon Instruments) for data acquisition and analysis.”

T2 sequence (Q09429 whole entry C717S): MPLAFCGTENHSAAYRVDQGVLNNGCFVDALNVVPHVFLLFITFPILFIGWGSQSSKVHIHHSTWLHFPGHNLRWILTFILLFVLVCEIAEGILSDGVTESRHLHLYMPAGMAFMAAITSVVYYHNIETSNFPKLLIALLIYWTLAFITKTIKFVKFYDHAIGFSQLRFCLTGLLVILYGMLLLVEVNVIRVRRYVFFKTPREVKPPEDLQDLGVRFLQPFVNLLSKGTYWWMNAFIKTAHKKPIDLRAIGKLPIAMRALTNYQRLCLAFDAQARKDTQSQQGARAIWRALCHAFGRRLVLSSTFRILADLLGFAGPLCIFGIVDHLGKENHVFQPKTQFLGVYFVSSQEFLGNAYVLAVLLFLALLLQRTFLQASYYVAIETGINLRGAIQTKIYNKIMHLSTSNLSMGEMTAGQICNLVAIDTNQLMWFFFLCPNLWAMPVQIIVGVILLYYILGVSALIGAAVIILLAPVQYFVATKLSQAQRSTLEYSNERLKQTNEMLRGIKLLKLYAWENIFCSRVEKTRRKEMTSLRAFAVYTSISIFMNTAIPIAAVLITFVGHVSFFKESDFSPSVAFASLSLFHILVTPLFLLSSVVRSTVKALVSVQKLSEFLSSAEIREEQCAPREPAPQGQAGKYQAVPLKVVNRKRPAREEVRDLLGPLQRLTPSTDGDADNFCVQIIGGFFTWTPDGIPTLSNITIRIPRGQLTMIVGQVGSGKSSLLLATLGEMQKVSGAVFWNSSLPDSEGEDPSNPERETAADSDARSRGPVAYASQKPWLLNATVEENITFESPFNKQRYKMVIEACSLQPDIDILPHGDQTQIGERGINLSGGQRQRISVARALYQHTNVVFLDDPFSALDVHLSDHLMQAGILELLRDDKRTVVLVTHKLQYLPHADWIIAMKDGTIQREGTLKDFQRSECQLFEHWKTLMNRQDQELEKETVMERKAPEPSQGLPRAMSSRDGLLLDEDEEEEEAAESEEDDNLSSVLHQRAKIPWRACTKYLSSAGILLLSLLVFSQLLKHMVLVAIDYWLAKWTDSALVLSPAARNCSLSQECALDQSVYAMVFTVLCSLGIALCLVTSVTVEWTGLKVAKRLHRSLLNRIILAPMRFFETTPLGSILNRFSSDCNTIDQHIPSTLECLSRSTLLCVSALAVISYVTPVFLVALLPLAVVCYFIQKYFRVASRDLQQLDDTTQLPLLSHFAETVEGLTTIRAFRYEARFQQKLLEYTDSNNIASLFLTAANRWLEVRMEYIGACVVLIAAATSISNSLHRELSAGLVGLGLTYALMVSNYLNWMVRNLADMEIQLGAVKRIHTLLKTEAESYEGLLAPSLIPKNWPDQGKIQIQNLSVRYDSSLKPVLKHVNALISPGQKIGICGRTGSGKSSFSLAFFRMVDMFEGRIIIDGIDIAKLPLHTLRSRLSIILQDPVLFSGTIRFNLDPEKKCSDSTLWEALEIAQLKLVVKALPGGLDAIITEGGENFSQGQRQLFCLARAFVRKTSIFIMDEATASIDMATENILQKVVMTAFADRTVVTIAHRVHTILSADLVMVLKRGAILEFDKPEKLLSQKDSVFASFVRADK
T2 sequence (P70673 whole entry): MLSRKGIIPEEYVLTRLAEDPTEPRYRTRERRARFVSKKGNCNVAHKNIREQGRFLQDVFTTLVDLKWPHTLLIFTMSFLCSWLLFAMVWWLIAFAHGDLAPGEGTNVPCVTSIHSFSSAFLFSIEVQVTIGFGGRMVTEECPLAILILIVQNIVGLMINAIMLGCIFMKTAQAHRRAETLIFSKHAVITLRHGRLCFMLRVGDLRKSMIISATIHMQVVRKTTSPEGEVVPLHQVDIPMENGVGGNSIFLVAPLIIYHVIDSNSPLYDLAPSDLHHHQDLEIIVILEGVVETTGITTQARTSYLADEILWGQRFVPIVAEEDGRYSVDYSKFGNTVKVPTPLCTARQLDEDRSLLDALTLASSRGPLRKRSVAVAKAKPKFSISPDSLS
T1 sequence (Q09429 whole entry): as the sequence (Q09429 whole entry C717S) above, with S717C counted along it
T1 sequence (P70673 whole entry): as the sequence (P70673 whole entry) above

S-nitroso-N-acetylpenicillamine [SNAP]
effect on recombinant channel activity [1]: significantly activated | effect on recombinant channel activity ([2]; SNAP 1 mM in the presence of 1 mM [ATP]i): significantly activated | potency in activating the channel compared with the wild-type SUR1/Kir6.2 channel ([2]; SNAP, n = 8, p < 0.02 vs. wild type): significantly less potent | effect on Kir6.2ΔC36 currents (Kir6.2ΔC36 channels): fails to activate
